One data set deals with HepG2 cells. The settings on record: HepG2, 14 day; for mitochondrial toxicity: at 10 μM.
Data set [1] in a line: HepG2 cytotoxicity, 3 day, glucose/galactose media. It counts as cell-based. The settings on record: human.
The subject of another data set is CFU-GM lineage. Kind of data set: Bone marrow toxicity, CFU-GM. Type of data set: cell-based, human. Conditions: human, Cytotoxicity IC50, bone marrow CFU-GM, three separate donors.
For a further data set, the system named is BFU-E lineage. Kind of data set: Bone marrow toxicity, BFU-E. The settings on record: human, Cytotoxicity IC50, bone marrow BFU-E, three separate donors. Type of data set: cell-based, human.
The test system of data set [2] is colony-forming unit-granulocyte, macrophage (CFU-GM) lineage. Briefly: Bone marrow toxicity, CFU-GM. Type of data set: cell-based, human. The settings on record: positive control, at the concentration tested.
For data set [3], the system named is burst forming unit-erythroid (BFU-E) lineage. Briefly: Bone marrow toxicity, BFU-E. It counts as cell-based, human. The settings on record: positive control, at the concentration tested.
The nature of data set [4]: in vitro. The settings on record: African green monkey.
Data set [5] has as its system Salmonella typhimurium (TA98, TA100, TA1535, and TA1537) and Escherichia coli WP2 uvrA (pKM101). Kind of data set: Mini Ames reverse mutation study. Conditions: with and without S9 mix.
For data set [6] the following is noted: for Clint(liver): scaled from Clint(mic).
Data set [7] relates to HCV GT1b/5a chimeric replicon. Briefly: Chimeric replicon GT1b/5a in Huh-7 cells. It counts as cell-based. Conditions: Hepatitis C virus, Huh-7, read-out: EC90 GT1b/5a.
Data set [8] is described as follows: Stability in simulated gastric fluid. It counts as physicochemical. The settings on record: 37 °C.
Data set [9] relates to HCV GT1b/3a chimeric replicon. Kind of data set: Chimeric replicon GT1b/3a in Huh-7 cells. Conditions: Hepatitis C virus, Huh-7, read-out: EC90 GT1b/3a. It counts as cell-based. In general terms: Replicon systems follow genome replication, usually without infectious particles.
Data set [10] is described as follows: HepG2 cytotoxicity, 14 day, glucose/galactose media. Type of data set: cell-based. Conditions: human.
Data set [11] in a line: in vitro. Conditions: human, microsomes.
The test system of data set [12] is HCV GT1b/4a chimeric replicon. Kind of data set: Chimeric replicon GT1b/4a in Huh-7 cells. The settings on record: Hepatitis C virus, Huh-7, read-out: EC90 GT1b/4a. Type of data set: cell-based.
Data set [13] can be described thus: Stability in simulated intestinal fluid. Conditions: 37 °C.
Data set [14] deals with T1, human ether-à-go-go-related gene (hERG) potassium channels (Homo sapiens, UniProt Q12809). Briefly: hERG whole-cell patch clamp in CHO cells. It counts as cell-based. (hERG is a cardiac potassium channel; its block is linked to QT prolongation.)
Data set [15] is described as follows: Cardiac toxicity in stem cell-induced ventricular cardiomyocytes. Conditions: human.
The nature of data set [16]: Stability in human intestinal microsomes.
The test system of another data set is HCV GT1b-WT replicon. Briefly: GT1b stably transfected replicon in Huh-7 cells. Type of data set: cell-based. The settings on record: Hepatitis C virus; for EC50: Huh-7, read-out: EC50 GT1b-WT; for EC90: Huh-7, read-out: EC90 GT1b-WT.
Another data set concerns HCV GT2a. Briefly: GT2a infectious assay in Huh-7 cells. It counts as cell-based. The settings on record: Hepatitis C virus, Huh-7, read-out: EC90 GT2a.
Data set [17] addresses T1, human ether-à-go-go-related gene (hERG) potassium channels. Conditions: cited from earlier work.
The nature of data set [18]: In vitro nephrotoxicity in HK-2 cells, 3 day assay. Conditions: human.
Data set [19] concerns Salmonella typhimurium (TA98, TA100, TA1535, and TA1537) and Escherichia coli WP2 uvrA (pKM101). The settings on record: cited from earlier work.
A further data set concerns the target DNA polymerase β (Homo sapiens, UniProt P06746). Kind of data set: Human DNA polymerase β inhibition. It counts as biochemical.
For the next data set, the target named is T2, DNA polymerase γ (Homo sapiens, UniProt P54098).
T2 sequence (P54098 1-1239): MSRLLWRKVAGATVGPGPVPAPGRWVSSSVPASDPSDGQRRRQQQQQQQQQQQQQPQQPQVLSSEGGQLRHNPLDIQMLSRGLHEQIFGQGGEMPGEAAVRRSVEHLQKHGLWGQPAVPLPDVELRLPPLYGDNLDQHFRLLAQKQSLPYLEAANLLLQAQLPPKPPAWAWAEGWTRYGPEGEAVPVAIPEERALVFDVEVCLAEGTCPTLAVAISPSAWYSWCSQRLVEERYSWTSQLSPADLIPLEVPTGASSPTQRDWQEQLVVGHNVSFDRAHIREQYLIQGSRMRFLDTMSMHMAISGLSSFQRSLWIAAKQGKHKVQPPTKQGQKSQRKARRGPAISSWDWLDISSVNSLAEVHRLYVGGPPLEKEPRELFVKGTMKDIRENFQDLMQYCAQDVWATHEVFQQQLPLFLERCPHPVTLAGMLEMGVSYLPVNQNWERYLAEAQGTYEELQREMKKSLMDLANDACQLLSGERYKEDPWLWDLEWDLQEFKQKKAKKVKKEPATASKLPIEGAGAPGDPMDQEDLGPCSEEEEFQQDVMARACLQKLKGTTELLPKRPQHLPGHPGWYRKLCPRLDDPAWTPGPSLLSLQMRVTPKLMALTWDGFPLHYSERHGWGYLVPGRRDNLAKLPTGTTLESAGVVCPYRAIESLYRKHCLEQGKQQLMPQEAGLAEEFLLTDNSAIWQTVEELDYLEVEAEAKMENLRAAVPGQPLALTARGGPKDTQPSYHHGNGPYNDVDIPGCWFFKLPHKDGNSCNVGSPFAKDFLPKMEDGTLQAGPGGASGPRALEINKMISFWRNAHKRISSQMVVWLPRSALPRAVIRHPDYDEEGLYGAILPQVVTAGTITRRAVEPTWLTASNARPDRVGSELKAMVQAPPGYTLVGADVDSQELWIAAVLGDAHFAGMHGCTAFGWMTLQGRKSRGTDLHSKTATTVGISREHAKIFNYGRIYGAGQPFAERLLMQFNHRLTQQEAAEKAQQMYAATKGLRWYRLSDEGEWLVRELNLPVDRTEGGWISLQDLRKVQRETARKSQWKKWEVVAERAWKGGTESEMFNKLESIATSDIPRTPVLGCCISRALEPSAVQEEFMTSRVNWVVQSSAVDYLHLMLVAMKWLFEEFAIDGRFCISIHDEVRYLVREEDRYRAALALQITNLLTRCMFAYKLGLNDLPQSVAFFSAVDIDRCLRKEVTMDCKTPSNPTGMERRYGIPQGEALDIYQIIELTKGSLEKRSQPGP
Briefly: Human DNA polymerase γ inhibition. Type of data set: biochemical.

Where two headings read alike, the source gives them in different places. Bounds are passed on as bounds.

T1 sequence (Q12809 whole entry): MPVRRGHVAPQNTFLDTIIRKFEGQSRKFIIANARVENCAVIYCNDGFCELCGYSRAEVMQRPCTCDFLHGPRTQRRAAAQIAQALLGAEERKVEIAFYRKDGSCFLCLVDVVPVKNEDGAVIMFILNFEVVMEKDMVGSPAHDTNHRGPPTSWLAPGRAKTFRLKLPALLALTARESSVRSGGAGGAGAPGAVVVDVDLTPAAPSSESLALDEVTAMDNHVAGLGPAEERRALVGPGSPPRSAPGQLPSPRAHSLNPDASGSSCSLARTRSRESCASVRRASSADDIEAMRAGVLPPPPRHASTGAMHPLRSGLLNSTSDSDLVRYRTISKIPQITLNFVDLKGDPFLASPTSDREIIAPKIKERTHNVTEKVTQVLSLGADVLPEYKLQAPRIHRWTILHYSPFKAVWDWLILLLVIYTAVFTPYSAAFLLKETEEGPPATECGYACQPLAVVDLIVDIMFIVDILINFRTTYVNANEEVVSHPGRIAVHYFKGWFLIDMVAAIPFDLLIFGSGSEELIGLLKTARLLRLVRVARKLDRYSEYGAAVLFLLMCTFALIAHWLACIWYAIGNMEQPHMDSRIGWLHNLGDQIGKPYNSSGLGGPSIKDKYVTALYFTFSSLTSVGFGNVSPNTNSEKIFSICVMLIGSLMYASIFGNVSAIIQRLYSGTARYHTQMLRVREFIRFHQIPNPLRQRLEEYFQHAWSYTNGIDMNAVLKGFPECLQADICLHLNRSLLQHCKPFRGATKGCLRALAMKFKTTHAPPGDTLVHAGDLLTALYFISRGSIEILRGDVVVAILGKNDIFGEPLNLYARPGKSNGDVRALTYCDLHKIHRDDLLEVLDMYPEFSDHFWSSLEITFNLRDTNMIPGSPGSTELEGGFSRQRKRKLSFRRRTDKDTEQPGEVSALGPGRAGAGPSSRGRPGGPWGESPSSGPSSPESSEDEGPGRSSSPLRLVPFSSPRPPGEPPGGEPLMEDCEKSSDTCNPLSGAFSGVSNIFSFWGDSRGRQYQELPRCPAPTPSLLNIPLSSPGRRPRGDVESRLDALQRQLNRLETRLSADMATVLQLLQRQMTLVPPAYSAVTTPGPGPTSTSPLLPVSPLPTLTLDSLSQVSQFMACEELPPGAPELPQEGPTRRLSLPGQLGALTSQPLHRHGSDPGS

Broadly, the IC50 is the point on the concentration scale where inhibition reaches its midpoint. Turning to `CC(C)OC(=O)[C@H](C)NP(=O)(OC[C@H]1O[C@@H](n2ccc(=O)[nH]c2=O)[C@](F)(Br)[C@H]1O)Oc1ccccc1` (mixture of isomers) [Compound 14], the “MtDNA content % of control (range)” value in the data set on HepG2 cells (50 μM) is 100 (99–104) % of control. In addition, in the data set on HepG2 cells, the “measurable mitochondrial toxicity (none up to)” value was greater than 50 µM. Further, the IC50 at 3 days in [1] is greater than 100000 nM. The IC50 with CFU-GM lineage and in the data set on BFU-E lineage was greater than 100000 nM in each case.
Turning to `Cc1cn([C@H]2C[C@H](N=[N+]=[N-])[C@@H](CO)O2)c(=O)[nH]c1=O` [AZT, reference compound], in [2], the “toxicity in myelomonocytic progenitors” value was “high toxicity”. Moreover, in data set [3], the “toxicity in erythroid progenitors” value was “high toxicity”.
For the compound `O=c1ccn([C@@H]2O[C@H](CO)[C@@H](O)[C@]2(F)Br)c(=O)[nH]1` [Compound 12, 1-((2R, 3S, 4R, 5R)-3-Bromo-3-fluoro-4-hydroxy-5-(hydroxymethyl)tetrahydrofuran-2-yl)pyrimidine-2,4(1H,3H)-dione], in the data set with HepG2 cells (50 μM), the “MtDNA content % of control (range)” value is recorded as 72 (63–83) % of control and the “lactic acid production (% of control)” value is listed as 69 ± 14 % of control. The “measurable mitochondrial toxicity (none up to)” value with HepG2 cells was greater than 50 µM. The compound also showed a CC50 in “in vitro [4]” greater than 100000 nM. The IC50 with CFU-GM lineage is greater than 100000 nM.
One may read the half-life as the time in which the quantity being followed falls by half. As usually defined, the microsomal CLint is the rate of metabolic loss divided by the concentration. One may read the EC50 as the concentration at which the effect is half-maximal. For the compound `CC(C)OC(=O)[C@H](C)N[P@@](=O)(OC[C@H]1O[C@@H](n2ccc(=O)[nH]c2=O)[C@@](F)(Br)[C@@H]1O)Oc1ccccc1` [Compound 27, Isopropyl ((R)-(((2R,3R,4S,5R)-4-Bromo-5-(2,4-dioxo-3,4-dihydro-pyrimidin-1(2H)-yl)-4-fluoro-3-hydroxytetrahydrofuran-2-yl)-methoxy)(phenoxy)phosphoryl)-L-alaninate], the “MtDNA content % of control (range)” value with HepG2 cells (50 μM) is listed as 65 (65–65) % of control. In addition, in the data set on HepG2 cells (50 μM), the “lactic acid production (% of control)” value is recorded as 100 ± 6.2 % of control. Besides, the “mutagenicity (mini Ames)” value in data set [5] is “negative for mutagenicity”. In data set [1], the IC50 at 3 days is greater than 100000 nM. Besides, the CC50 in the data set “in vitro [4]” is greater than 100000 nM. Besides, the “Clint(liver)” value in [6] turned out to be 67.8 mL/min/kg. In addition, the EC90 in data set [7] turned out to be 800 ± 1500 nM; in data set [9] it was 1600 ± 20 nM; in data set [12] it was 870 ± 230 nM; in the data set on HCV GT2a it was 830 ± 10 nM. Also, the “simulated gastric fluid (24 h), loss” value in [8] was roughly 2% loss. In data set [10], this compound showed an IC50 at 14 days greater than 100000 nM. Further, the IC50 is greater than 100000 nM in the data set on CFU-GM lineage, greater than 30000 nM in [14], greater than 100000 nM in [15] and greater than 100000 nM in the data set on BFU-E lineage. Moreover, the figures for the half-life (in the data set “in vitro [11]”; in [16]) were 18.4 min and 132 min, respectively. In “in vitro [11]”, the intrinsic clearance (microsomal CLint) came to 75.3 µL/min/mg. Further, the “stability in simulated intestinal fluid (24 h)” value in data set [13] is on record as “stable”. The EC50 in the data set on HCV GT1b-WT replicon is 92 nM.
For `CC(C)OC(=O)[C@H](C)N[P@](=O)(OC[C@H]1O[C@@H](n2ccc(=O)[nH]c2=O)[C@@](F)(Br)[C@@H]1O)Oc1ccccc1` [Compound 28, Isopropyl ((S)-(((2R,3R,4S,5R)-4-Bromo-5-(2,4-dioxo-3,4-dihydro-pyrimidin-1(2H)-yl)-4-fluoro-3-hydroxytetrahydrofuran-2-yl)-methoxy)(phenoxy)phosphoryl)-L-alaninate], the “MtDNA content % of control (range)” value was 86 (79–93) % of control in the data set with HepG2 cells (12.5 μM), 110 (110–110) % of control with HepG2 cells (25 μM) and 150 (150–150) % of control with HepG2 cells (50 μM). In addition, the mitochondrial toxicity result in the data set with HepG2 cells is “no mitochondrial toxicity”. Moreover, the “mutagenicity (mini Ames)” value in data set [5] is given as “negative for mutagenicity”. For the same compound, the IC50 at 3 days in data set [1] was greater than 100000 nM. This compound also displayed a CC50 in the data set “in vitro [4]” greater than 100000 nM. In addition, the “remaining after 60 min” value in data set [6] (human liver microsomes) is listed as 3%. Besides, the “Clint(liver)” value in data set [6] came to 63.2 mL/min/kg. For the same compound, the EC90 came to 83 ± 20 nM in [7], 130 ± 3 nM in data set [12], 74 ± 2 nM with HCV GT1b-WT replicon and 77 nM in the data set on HCV GT2a. Moreover, the “simulated gastric fluid (24 h), loss” value in data set [8] was roughly 2% loss. Besides, the concentration for half-maximal inhibition (IC50) at 14 days in data set [10] is greater than 100000 nM. Further, the half-life was 19.7 min in “in vitro [11]” and greater than 145 min in data set [16]. Further, the microsomal CLint in “in vitro [11]” amounted to 70.2 µL/min/mg. Also, the “stability in simulated intestinal fluid (24 h)” value in data set [13] is recorded as “stable”. Also, the results for the IC50 in [14] and in [15] were greater than 30000 nM and greater than 100000 nM, respectively.
Regarding `CC(C)OC(=O)[C@H](C)N[P@](=O)(OC[C@H]1O[C@@H](n2ccc(=O)[nH]c2=O)[C@](C)(F)[C@@H]1O)Oc1ccccc1` [SOF, sofosbuvir, reference compound], the entries for the “MtDNA content % of control (range)” value with HepG2 cells (12.5 μM) and in the data set with HepG2 cells (50 μM) were 96 (90–100) % of control and 130 (120–150) % of control, respectively. Further, the hERG channel inhibition result in data set [17] was “free from hERG channel inhibition”. Besides, the IC50 at 3 days in data set [18] is greater than 300000 nM. Also, the mutagenicity result in [19] is “negative for mutagenicity”. Besides, the EC90 was determined as 370 ± 10 nM in data set [9] and 150 ± 30 nM with HCV GT1b-WT replicon. This compound also gave an IC50 in data set [15] greater than 100000 nM. Also, in the data set on HCV GT1b-WT replicon, the EC50 came out at 34 nM.
For the compound `Nc1ccn([C@H]2CC[C@@H](CO)O2)c(=O)n1` [ddC, β-D-2′,3′-dideoxycytidine, reference compound], the “MtDNA content % of control (range)” value in the data set with HepG2 cells (10 μM) is reported as 7.3 % of control. For the same compound, the mitochondrial toxicity entry in the data set with HepG2 cells was “highly toxic”.
On to `Cc1cn([C@H]2CC[C@@H](COP(=O)(O)OP(=O)(O)OP(=O)(O)O)O2)c(=O)[nH]c1=O` [ddTTP], for which the half-inhibitory concentration (IC50) was 8400 ± 110 nM against DNA polymerase β and 100 ± 70 nM against DNA polymerase γ.
In “in vitro [11]”, `O=C(O)Cc1ccccc1Nc1c(Cl)cccc1Cl` [diclofenac, reference compound] returned a microsomal CLint of 129 µL/min/mg.

The record behind these values is PMC7722249 (Journal of medicinal chemistry, 2019).
